According to ChEMBL document CHEMBL1132252, “Nonapeptide analogues containing (R)-3-hydroxybutanoate and beta-homoalanine oligomers: synthesis and binding affinity to a class I major histocompatibility complex protein” (1999):
Non-standard residues stand in square brackets, D forms with d. Residues, ends and D or L forms follow the SMILES beside them. *: point of attachment. X1 = C[C@H](CC(=O)N[C@@H](CCCCN)C(=O)O)OC(=O)C[C@H](C)NC(=O)C[C@@H](C)O*; β3hA = C[C@H](N)CC(=O)O

Tested on: RMA-S
Test: The compound was tested for binding affinity against murine RMA-S cells transfected with B*2705 by FMC analysis.
Format: functional, Mus musculus

C[C@H](CC(=O)N[C@H](C)CC(=O)N[C@@H](CCCCN)C(=O)O)NC(=O)C[C@@H](C)NC(=O)C[C@@H](C)NC(=O)[C@H](C)NC(=O)[C@H](CCCN=C(N)N)NC(=O)CN.O=C(O)C(F)(F)F.O=C(O)C(F)(F)F.O=C(O)C(F)(F)F
C50: 2.8 µM

C[C@H](CC(=O)N[C@@H](CCCCN)C(=O)O)NC(=O)C[C@H](C)NC(=O)C[C@@H](C)NC(=O)C[C@H](C)NC(=O)[C@H](C)NC(=O)[C@H](CCCN=C(N)N)NC(=O)CN.O=C(O)C(F)(F)F.O=C(O)C(F)(F)F.O=C(O)C(F)(F)F
C50: 4.8 µM

C[C@H](NC(=O)[C@H](CCCN=C(N)N)NC(=O)CN)C(=O)N[C@@H](C)CC(=O)N[C@@H](C)CC(=O)N[C@@H](C)CC(=O)N[C@@H](C)CC(=O)N[C@@H](CCCCN)C(=O)O
C50: 6 µM

C[C@H](CC(=O)N[C@@H](C)CC(=O)N[C@@H](C)CC(=O)N[C@@H](CCCCN)C(=O)O)NC(=O)C[C@@H](C)NC(=O)[C@H](C)NC(=O)[C@H](CCCN=C(N)N)NC(=O)CN
C50: 30 µM

C[C@H](CC(=O)N[C@@H](C)CC(=O)N[C@@H](C)CC(=O)N[C@@H](CCCCN)C(=O)O)OC(=O)C[C@@H](C)OC(=O)[C@H](C)NC(=O)[C@H](CCCN=C(N)N)NC(=O)CN
C50: 17 µM

C[C@H](CC(=O)N[C@@H](CCCCN)C(=O)O)OC(=O)C[C@H](C)NC(=O)C[C@@H](C)OC(=O)C[C@H](C)NC(=O)[C@H](C)NC(=O)[C@H](CCCN=C(N)N)NC(=O)CN (H-GRA[β3hA]-X1)
C50: 2.8 µM

H-GRAFVTIGK-OH
C50: 2.8 µM
